Assay results reported in patent publication US20150004134A1, “TREATMENT OF CANCER WITH HETEROCYCLIC INHIBITORS OF GLUTAMINASE” (Calithera Biosciences, Inc., priority 2012, published 2015).

These molecules were tested on P493-6 (myc "on") cells (assay: Cell Proliferation Assay). Conditions: P493-6, 72 h, read-out: Cell prolif P493 72 h IC50, P493-6 cells, 72 h.
Format: cell-based
Outline: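 Read-out: either Cell Titer Glo or Guava Viacount flow analysis after 72 h compound treatment of myc-on P493-6 cells (10,000/well, RPMI with 10% FBS) at 37 °C. DMSO held at 0.5% final.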
Work on `CC(=O)Nc1ccc(CC(=O)Nc2nnc(CCCCc3ccc(NC(=O)Cc4ccccc4)nn3)s2)cc1` [Compound 426] yielded an IC50 of 33 nM. `CC(=O)Nc1nnc(CCCCc2ccc(NC(=O)Cc3cccc(CNC(=O)OC(C)(C)C)c3)nn2)s1` [Compound 491] was tested, and the IC50 was 23 nM. `CCCC(=O)OCN(C(=O)C(CO)c1cccc(CNC(=O)OC(C)(C)C)c1)c1nnc(CCCCc2ccc(NC(=O)Cc3ccccc3)nn2)s1` (stereo not drawn) [Compound 567] gave an IC50 of 21 nM. With `Cc1ccccc1CC(=O)Nc1nnc(CCCCc2ccc(NC(=O)Cc3ccccc3F)nn2)s1` [Compound 536] the IC50 was 71 nM. `CC(C(=O)Nc1nnc(CCCCc2ccc(NC(=O)Cc3ccccc3)nn2)s1)c1ccc(F)c(CNC(=O)OC(C)(C)C)c1` (stereo not drawn) [Compound 568] was tested, and the IC50 was 28 nM. In the case of `COc1cc(CC(=O)Nc2nnc(CCCCc3ccc(NC(=O)Cc4ccccc4)nn3)s2)ccc1O` [Compound 554], the IC50 is reported as 172 nM. Work on `CCCC(=O)OCN(C(=O)Cc1cccc(CNC(=O)OC(C)(C)C)c1)c1nnc(CCCCc2ccc(NC(=O)Cc3ccccc3)nn2)s1` [Compound 552] yielded an IC50 of 5 nM. `COc1ccc(CC(=O)Nc2nnc(CCCCc3ccc(NC(=O)Cc4ccccc4)nn3)s2)cc1O` [Compound 582] was tested, and the IC50 was 46 nM. In the case of `COc1cccc(CC(=O)Nc2ccc(CCCCc3nnc(NC(=O)C(O)c4cccc(Cl)c4)s3)nn2)c1` (stereo not drawn) [Compound 467], the IC50 is reported as 47 nM. Work on `CCCOc1ccc(C(O)C(=O)Nc2nnc(CCCCc3ccc(NC(=O)Cc4ccccc4)nn3)s2)cc1` (stereo not drawn) [Compound 558] yielded an IC50 of 28 nM. `O=C(Cc1ccccc1)Nc1ccc(CCCCc2nnc(NC(=O)NC3CCCC3)s2)nn1` [Compound 403] was tested, and the IC50 was 120 nM. `CCCCNC(=O)Cc1cccc(CC(=O)Nc2nnc(CCCCc3ccc(NC(=O)Cc4ccccc4)nn3)s2)c1` [Compound 496] was tested, and the IC50 was 17 nM. Work on `O=C(Cc1ccccc1)Nc1nnc(CCCCc2nnc(NC(=O)Cc3ccccc3)o2)o1` [Compound 637] yielded an IC50 greater than 50000 nM. Work on `C[C@@](O)(C(=O)NCc1cccc(CC(=O)Nc2nnc(CCCCc3ccc(NC(=O)Cc4ccccc4)nn3)s2)c1)C(F)(F)F` [Compound 477] yielded an IC50 of 15 nM. For `CC(=O)NCCc1cccc(CC(=O)Nc2nnc(CCCCc3ccc(NC(=O)Cc4ccccc4)nn3)s2)c1` [Compound 454], the IC50 was 130 nM. `CCNC(=O)OC(C)c1cccc(CC(=O)Nc2ccc(CCCCc3nnc(NC(=O)Cc4ccccc4)s3)nn2)c1` (stereo not drawn) [Compound 610] was tested, and the IC50 was 11 nM. `CC(NC(=O)OC(C)(C)C)c1cc(CC(=O)Nc2ccc(CCCCc3nnc(NC(=O)Cc4ccccc4)s3)nn2)ccc1F` (stereo not drawn) [Compound 654] was tested, and the IC50 was 7 nM. With `CC(=O)N1Cc2cccc(CC(=O)Nc3nnc(CCCCc4ccc(NC(=O)Cc5ccccc5)nn4)s3)c2C1` [Compound 651] the IC50 was 37 nM. In the case of `O=C(Cc1ccccc1)Nc1ccc(CCCCc2nnc(NC(=O)Cc3cccc(CN4CCCC4=O)c3)s2)nn1` [Compound 479], the IC50 is reported as 30 nM.

Same assay, conditions: P493-6, 72 h, read-out: Cell prolif P493 72 h IC50, P493 cells, 72 h
For `CC1(C(=O)Nc2nnc(CCSCCc3nnc(NC(=O)C4(C)CCCO4)s3)s2)CCCO1` (stereo not drawn) [Compound 119], the IC50 was 13000 nM. Molecule `CO[C@@H](C(=O)Nc1nnc(CCCCc2nnc(NC(=O)[C@H](OC)c3ccccc3)s2)s1)c1ccccc1` [Compound 147] has an IC50 of 370 nM. `O=C(Nc1nnc(CCCCc2nnc(NC(=O)C(O)Cc3ccccc3)s2)s1)C(O)Cc1ccccc1` (stereo not drawn) [Compound 69] showed an IC50 of 330 nM. `O=C(Cc1ccccc1)Nc1nnc(CCCCc2nnc(NC(=O)Cc3cccc(OCCN4CCOCC4)c3)s2)s1` [Compound 390] showed an IC50 of 160 nM. Molecule `CC(C)[C@H](N)C(=O)OCC(C(=O)Nc1nnc(CCCCc2nnc(NC(=O)C(COC(=O)[C@@H](N)C(C)C)c3ccccc3)s2)s1)c1ccccc1` (stereo partly drawn) [Compound 291] has an IC50 of 1800 nM. Work on `CC(C)[C@H](NC(=O)OC(C)(C)C)C(=O)Nc1nnc(CCSCCc2nnc(NC(=O)[C@@H](NC(=O)OC(C)(C)C)C(C)C)s2)s1` [Compound 34] yielded an IC50 greater than 50000 nM. In the case of `O=C(Cc1ccccc1)Nc1nnc(CCSCCc2nnc(N(COC(=O)OCCCN3CCOCC3)C(=O)Cc3ccccc3)s2)s1` [Compound 27], the IC50 is reported as 470 nM. Work on `O=C(Cn1cccn1)Nc1nnc(CCCCc2nnc(NC(=O)Cn3cccn3)s2)s1` [Compound 60] yielded an IC50 of 14000 nM. Work on `O=C(Cc1ccccc1)Nc1ccc(CCCCc2nnc(NC(=O)Cc3cccc(Cl)c3)s2)nn1` [Compound 335] yielded an IC50 of 50 nM. In the case of `O=C(Nc1nnc(CCSCCc2nnc(NC(=O)C3CCOC3)s2)s1)C1CCOC1` (stereo not drawn) [Compound 95], the IC50 is reported as 45000 nM. `CC(=O)N[C@@H](C(=O)Nc1nnc(CCSCCc2nnc(NC(=O)[C@H](NC(C)=O)c3ccccc3)s2)s1)c1ccccc1` [Compound 128] was tested, and the IC50 was greater than 50000 nM. Molecule `O=C(Nc1nnc(CCCCc2nnc(NC(=O)C3Oc4ccccc4O3)s2)s1)C1Oc2ccccc2O1` [Compound 136] has an IC50 of 4700 nM. With `COC(=O)C(C(=O)Nc1nnc(CCCCc2nnc(NC(=O)C(C(=O)OC)c3ccccc3)s2)s1)c1ccccc1` (stereo not drawn) [Compound 220] the IC50 was 310 nM. `O=C(Nc1nnc(CCSCCc2nnc(NC(=O)c3ccccc3CO)s2)s1)c1ccccc1CO` [Compound 180] gave an IC50 greater than 50000 nM. `COCCC(=O)Nc1nnc(CCSCCc2nnc(NC(=O)CCOC)s2)s1` [Compound 101] showed an IC50 of 17000 nM. `O=C(Cc1ccccc1)Nc1nnc(CCCCc2nnc(NC(=O)OCc3ccccc3)s2)s1` [Compound 374] was tested, and the IC50 was 470 nM. With `Cc1ccccc1C(C)C(=O)Nc1nnc(CCSCCc2nnc(NC(=O)C(C)c3ccccc3C)s2)s1` (stereo not drawn) [Compound 262] the IC50 was 3100 nM. `COc1cccc(C(CO)C(=O)Nc2nnc(CCSCc3nnc(NC(=O)C(CO)c4cccc(OC)c4)s3)s2)c1` (stereo not drawn) [Compound 258] showed an IC50 of 180 nM. With `O=C(Nc1nnc(CCCCc2nnc(NC(=O)C(F)(F)F)s2)s1)C(F)(F)F` [Compound 45] the IC50 was greater than 50000 nM. `O=C(Cc1ccccc1)Nc1nnc(CCCCc2nnc(NC(=O)Cc3ccccc3CO)s2)s1` [Compound 333] gave an IC50 of 1600 nM. `O=C(Cc1ccccc1)Nc1ccc(CCCCc2nnc(NC(=O)NCc3ccccc3)s2)nn1` [Compound 352] gave an IC50 of 130 nM. `O=C(CC1CCCCC1)Nc1nnc(CCSCCc2nnc(NC(=O)CC3CCCCC3)s2)s1` [Compound 48] gave an IC50 of 420 nM. `O=C(Cc1ccccc1)Nc1nnc(CCSCCc2nnc(NC(=O)Cc3ccccn3)s2)s1` [Compound 359] was tested, and the IC50 was 910 nM. `O=C(Nc1nnc(CCCCc2nnc(NC(=O)[C@@H](O)Cc3ccccc3)s2)s1)[C@@H](O)Cc1ccccc1` [Compound 146] showed an IC50 of 460 nM. `O=C(COc1ccccc1)Nc1nnc(CCCCc2nnc(NC(=O)COc3ccccc3)s2)s1` [Compound 43] showed an IC50 greater than 50000 nM. Work on `O=C(CCC(C(=O)O)c1ccccc1)Nc1nnc(CCSCCc2nnc(NC(=O)CCC(C(=O)O)c3ccccc3)s2)s1` (stereo not drawn) [Compound 179] yielded an IC50 greater than 50000 nM. In the case of `O=C(Nc1nnc(CCCCc2nnc(NC(=O)C3(c4ccccc4)CCOCC3)s2)s1)C1(c2ccccc2)CCOCC1` [Compound 166], the IC50 is reported as 6800 nM. `O=C(Cc1ccccc1)Nc1nnc(CCSCCc2nnc(NC(=O)Cc3cccnc3)s2)s1` [Compound 347] was tested, and the IC50 was 710 nM. Molecule `CC(=O)NCC(C(=O)Nc1nnc(CCCCc2nnc(NC(=O)C(CNC(C)=O)c3ccccc3)s2)s1)c1ccccc1` (stereo not drawn) [Compound 266] has an IC50 greater than 50000 nM. Molecule `COc1cccc(CC(=O)Nc2nnc(CCSCCc3nnc(NC(=O)Cc4cccc(OC)c4)s3)s2)c1` [Compound 156] has an IC50 of 630 nM. Molecule `O=C(Cc1c(F)cccc1F)Nc1nnc(CCSCCc2nnc(NC(=O)Cc3c(F)cccc3F)s2)s1` [Compound 298] has an IC50 of 5100 nM. `O=C(Nc1nnc(CCCCc2nnc(NC(=O)C(O)c3cccc(Cl)c3)s2)s1)C(O)c1cccc(Cl)c1` (stereo not drawn) [Compound 306] showed an IC50 of 66 nM. Work on `O=C(Cc1cccc(OCCN2CCOCC2)c1)Nc1nnc(CCSCc2nnc(NC(=O)Cc3cccc(OCCN4CCOCC4)c3)s2)s1` [Compound 267] yielded an IC50 of 640 nM. `CC(C)CC(=O)Nc1nnc(CCSCCc2nnc(NC(=O)CC(C)C)s2)s1` [Compound 4] was tested, and the IC50 was greater than 50000 nM. `Nc1ccc(CC(=O)Nc2nnc(CCSCCc3nnc(NC(=O)Cc4ccc(N)cc4)s3)s2)cc1` [Compound 195] showed an IC50 of 1300 nM. For `CC(C)(C)OC(=O)Nc1cccc(CC(=O)Nc2nnc(CCCCc3nnc(NC(=O)Cc4cccc(NC(=O)OC(C)(C)C)c4)s3)s2)c1` [Compound 327], the IC50 was 150 nM. For `O=C(Nc1nnc(CCCc2nnc(NC(=O)C(O)c3ccccc3)s2)s1)C(O)c1ccccc1` (stereo not drawn) [Compound 172], the IC50 was 3700 nM. With `O=C(Nc1nnc(CCCCc2nnc(NC(=O)C(c3ccccc3)N3CCNCC3)s2)s1)C(c1ccccc1)N1CCNCC1` (stereo not drawn) [Compound 77] the IC50 was 34000 nM. Work on `COc1ccc(OC)c(CC(=O)Nc2nnc(CCCCc3nnc(NC(=O)Cc4ccccc4)s3)s2)c1` [Compound 271] yielded an IC50 of 630 nM. Molecule `O=C(Nc1nnc(CCCCc2nnc(NC(=O)C3(C(F)(F)F)CC3)s2)s1)C1(C(F)(F)F)CC1` [Compound 62] has an IC50 of 19000 nM. `O=C(Cc1cccs1)Nc1nnc(CCCCc2nnc(NC(=O)Cc3cccs3)s2)s1` [Compound 87] gave an IC50 of 60 nM. `O=C(Nc1nnc(CCSCCc2nnc(NC(=O)C3Oc4ccccc4O3)s2)s1)C1Oc2ccccc2O1` [Compound 134] was tested, and the IC50 was 28000 nM. Molecule `COc1c(F)ccc(CC(=O)Nc2nnc(CCCCc3nnc(NC(=O)Cc4ccccc4)s3)s2)c1F` [Compound 344] has an IC50 of 88 nM. `COc1ccc(Cl)c(CC(=O)Nc2nnc(CCCCc3nnc(NC(=O)Cc4ccccc4)s3)s2)c1F` [Compound 343] gave an IC50 of 250 nM. In the case of `CC(=O)O[C@H](C(=O)Nc1nnc(CCSCCc2nnc(NC(=O)[C@@H](OC(C)=O)c3ccccc3)s2)s1)c1ccccc1` [Compound 71], the IC50 is reported as 6900 nM. Work on `COc1ccc(CC(=O)Nc2nnc(CCCCc3nnc(NC(=O)Cc4ccc(OC)c(OC)c4)s3)s2)cc1OC` [Compound 160] yielded an IC50 greater than 50000 nM. Molecule `O=C(Nc1nnc(CCCCc2nnc(NC(=O)C3CCCO3)s2)s1)C1CCCO1` (stereo not drawn) [Compound 54] has an IC50 of 1600 nM. `CCCC(=O)OCN(C(=O)Cc1ccccc1)c1nnc(CCSCCc2nnc(N(COC(=O)CCC)C(=O)Cc3ccccc3)s2)s1` [Compound 8] gave an IC50 of 1600 nM. Work on `O=C(Nc1nnc(CCCCc2nnc(NC(=O)[C@H](O)Cc3ccccc3)s2)s1)[C@H](O)Cc1ccccc1` [Compound 169] yielded an IC50 of 3400 nM.

Same assay, conditions: read-out: Cell prolif P493 72 h IC50; 72 h
Molecule `[2H]C([2H])(CCc1nnc(NC(=O)Cc2ccccn2)s1)C([2H])([2H])c1ccc(NC(=O)Cc2cccc(OC(F)(F)F)c2)nn1` [Compound 727] has an IC50 of 12 nM.
